Structures can show the parent of a compound that is named as a salt.

We go through 15 molecules from patent publication US7888510B2, “2-′4(phenylamino)-piperidin-1-yl!-n-phenyl-acetamine derivatives and related compounds as neuropeptide Y5 (NPY5) ligands for the treatment of obesity” (Laboratorios del Dr. Esteve S.A., priority 2003, dated 2011).

The first data set deals with T1, rat Y5 receptor (Rattus norvegicus, UniProt Q63634).
T1 construct: expressed in transfected cells; host or cells: C6 cells (membrane preparation)
T1 sequence (Q63634 1-445): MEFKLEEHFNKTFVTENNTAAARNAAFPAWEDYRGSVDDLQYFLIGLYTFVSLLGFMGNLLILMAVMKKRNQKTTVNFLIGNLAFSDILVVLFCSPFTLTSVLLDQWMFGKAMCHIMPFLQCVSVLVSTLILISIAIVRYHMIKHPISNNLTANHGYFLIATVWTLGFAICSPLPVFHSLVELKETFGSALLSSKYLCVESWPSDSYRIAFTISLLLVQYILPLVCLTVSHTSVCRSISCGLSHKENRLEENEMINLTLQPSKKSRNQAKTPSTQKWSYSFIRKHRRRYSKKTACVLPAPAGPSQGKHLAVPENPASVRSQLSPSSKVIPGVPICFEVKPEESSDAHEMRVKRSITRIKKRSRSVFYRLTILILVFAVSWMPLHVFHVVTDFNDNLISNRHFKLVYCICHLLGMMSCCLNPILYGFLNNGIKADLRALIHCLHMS
Description: Neuropeptide Y5 receptor binding ([125I]-PYY displacement, membranes of transfected C6 cells). Conditions: 10^−6 M; membranes of C6 cells transfected with the rat Y5 receptor; radioligand [125I]-PYY 100 pM. Here is the method: Neuropeptide Y5 Receptor Binding Studies:
The methods used for membrane preparation and binding are similar to those described by Y. Hu, B. T. Bloomquist et al. in Y. Hu, B. T. Bloomquist et al., The Journal of Biological Chemistry, 1996, 271, 26315-26319 with modifications. Said literature description is herewith incorporated by reference and forms part of the disclosure. Cells C6 were transfected with the rat Y5 receptor. The cells were grown under standard culture conditions in 150 cm^2 dishes and they were harvested using a rubber scraper and 10 ml PBS. The cells from five dishes were collected and centrifuged 2.500 g for 5 min (4° C.). The pellet was washed by resuspending in 3 ml buffer (Tris-HCl 10 mM, pH 7.4), homogenized using a Potter S homogenizer, 10 strokes at 600 rpm and centrifuged 48.000 g for 20 min (4° C.). The pellet was resuspended in 8 ml membrane buffer (Tris-HCl 25 mM, NaCl 120 mM, KCl 5 mM, KH2PO4 1.2 mM, CaCl2 2.5 mM, MgSO4 1.2 mM, BSA 0.15 mg/ml, Bacitracine 0.5 mg/ml, pH 7.4) and rehomogenized using the Potter S, 10 strokes at 600 rpm. The protein concentration in the incubation was […]. The radioligand was [^125I]-PYY (100 pM) in a total incubation volume of 200 μl. Following incubation at 25° C. for 2 h, the reaction was stopped by addition of 5 ml ice-cold buffer (Tris-HCl 25 mM, NaCl 120 mM, KCl 5 mM, KH2PO4 1.2 mM, CaCl2 2.5 mM, MgSO4 1.2 mM, pH 7.4) and rapid filtration in a Harvester Brandell Cell using filters (Schleicher & Schuell GF 3362) pretreated for two hours with 0.5% polyethyleneimine. Filters were washed one time with 5 ml ice-cold buffer. The filters were placed into plastic scintilation vials and 5 ml scintilation cocktail Ecoscint H were added. The quantity of radioactivity present was determined in a Wallac Winspectral 1414 counter. Non specific binding was determined in the presence of 1 μM de pNPY. All binding assays were done in triplicate.
The term inhibition denotes the drop in the measured response relative to a control, in per cent. In the case of `Cc1ccc(NC2CCN(CC(=O)Nc3cnc4ccccc4c3)CC2)c(CO)c1` [Example 5, 2-[4-(2-Hydroxymethyl-4-methyl-phenylamino)-piperidin-1-yl]-N-quinolin-3-yl-acetamide], testing at 1 µM gave an inhibition of 86.2%.
Molecule `Cc1ccc(NC2CCN(CC(=O)Nc3ccc4ncccc4c3)CC2)c(CO)c1` [Example 7, 2-[4-(2-Hydroxymethyl-4-methyl-phenylamino)-piperidin-1-yl]-N-quinolin-6-yl-acetamide] registered an inhibition at 1 µM of 82.3%.
`Cc1cccc(CO)c1NC1CCN(CC(=O)Nc2cnc3ccccc3c2)CC1` [Example 9, 2-[4-(2-Hydroxymethyl-6-methyl-phenylamino)-piperidin-1-yl]-N-quinolin-3-yl-acetamide] yielded an inhibition at 1 µM of 80.4%.
On the same count and under the same terms, for `Cc1cccc(CO)c1NC1CCN(CC(=O)Nc2ccc3ncccc3c2)CC1` [Example 11, 2-[4-(2-Hydroxymethyl-6-methyl-phenylamino)-piperidin-1-yl]-N-quinolin-6-yl-acetamide] the value was 73.9%; for `O=C(CN1CCC(Nc2ccccc2CO)CC1)Nc1ccc(C(=O)c2ccccc2)cc1` [Example 13, N-(4-Benzoyl-phenyl)-2-[4-(2-hydroxymethyl-phenylamino)-piperidin-1-yl]-acetamide], 81.5%; for `Cc1ccc(NC2CCN(CC(=O)Nc3ccc(C(=O)c4ccccc4)cc3)CC2)c(CO)c1` [Example 14, N-(4-Benzoyl-phenyl)-2-[4-(2-hydroxymethyl-4-methyl-phenylamino)-piperidin-1-yl]-acetamide], 88.9%.
Same read-out and setting: for `Cc1cccc(CO)c1NC1CCN(CC(=O)Nc2ccc(C(=O)c3ccccc3)cc2)CC1` [Example 15, N-(4-Benzoyl-phenyl)-2-[4-(2-hydroxymethyl-6-methyl-phenylamino)-piperidin-1-yl]-acetamide] the value was 93.2%.

Staying with this data set, now noted: membranes of C6 cells transfected with the rat Y5 receptor; radioligand [125I]-PYY 100 pM; 25° C., 2 h.
The term IC50 denotes the midpoint of a concentration-inhibition curve. A high value points to lower potency. `CCn1c2ccccc2c2cc(NC(=O)CN3CCC(Nc4c(C)cccc4CO)CC3)ccc21` [Example 1a, N-(9-Ethyl-9H-carbazol-3-yl)-2-[4-(2-hydroxymethyl-6-methyl-phenylamino)-piperidin-yl]acetamide dihydrochloride] had an IC50 of 50 nM.
Same read-out and setting: under `Cc1ccc(NC2CCN(CC(=O)Nc3ccc4c(c3)-c3ccccc3C4=O)CC2)c(CO)c1` [Example 2a, 2-[4-(2-Hydroxymethyl-4-methyl-phenylamino)-piperidin-1-yl]-N-(9-oxo-9H-fluoren-3-yl)-acetamide] stands 80.9 nM; under `Cc1cccc(CO)c1NC1CCN(CC(=O)Nc2ccc3c(c2)-c2ccccc2C3=O)CC1` [Example 3a, 2-[4-(2-Hydroxymethyl-6-methyl-phenylamino)-piperidin-1-yl]-N-(9-oxo-9H-fluoren-3-yl)-acetamide], 36.3 nM; under `Cc1cccc(CO)c1NC1CCN(CC(=O)Nc2ccc3c(c2)-c2ccccc2C3O)CC1` (stereo not drawn) [Example 5a, N-(9-Hydroxy-9H-fluoren-3-yl)-2-[4-(2-hydroxymethyl-6-methyl-phenylamino)-piperidin-1-yl]-acetamide], 40.1 nM.

Tested on in the next data set: not given
Experiment: not given
Details: not given
As a reminder, the melting point is the temperature, or range, at which the solid turns liquid. The molecule `COC(=O)c1ccccc1NC1CCN(CC(=O)Nc2ccc3c(c2)-c2ccccc2C3=O)CC1.Cl` returned a melting point of 258 °C.
Take `O=C(CN1CCC(Nc2ccccc2CO)CC1)Nc1ccc2c(c1)CCC2=O`: the melting point was in the range of 138 to 140 °C.
For the molecule `Cc1ccc(NC2CCN(CC(=O)Nc3ccc4c(c3)-c3ccccc3C4=O)CC2)c(CO)c1` [Example 2a, 2-[4-(2-Hydroxymethyl-4-methyl-phenylamino)-piperidin-1-yl]-N-(9-oxo-9H-fluoren-3-yl)-acetamide], the melting point amounted to 152 °C.
The same measure, in the same setting: for `Cc1cccc(CO)c1NC1CCN(CC(=O)Nc2ccc3c(c2)-c2ccccc2C3=O)CC1` [Example 3a, 2-[4-(2-Hydroxymethyl-6-methyl-phenylamino)-piperidin-1-yl]-N-(9-oxo-9H-fluoren-3-yl)-acetamide] the value was 113 °C; for `Cc1ccc(NC2CCN(CC(=O)Nc3ccc4c(c3)-c3ccccc3C4O)CC2)c(CO)c1` (stereo not drawn) [Example 4a, N-(9-Hydroxy-9H-fluoren-3-yl)-2-[4-(2-hydroxymethyl-4-methyl-phenylamino)-piperidin-1-yl]-acetamide], 124 °C.
`Cc1cccc(CO)c1NC1CCN(CC(=O)Nc2ccc3c(c2)-c2ccccc2C3O)CC1` (stereo not drawn) [Example 5a, N-(9-Hydroxy-9H-fluoren-3-yl)-2-[4-(2-hydroxymethyl-6-methyl-phenylamino)-piperidin-1-yl]-acetamide] came in with a melting point of 133 °C.
In turn, `Cc1ccc(NC2CCN(CC(=O)Nc3ccccc3)CC2)c(CO)c1` [Example 7a, 2-[4-(2-Hydroxymethyl-4-methyl-phenylamino)-piperidin-1-yl]-N-phenyl-acetamide] yielded a melting point of 128 °C.
